These results are taken from ChEMBL document CHEMBL4118268, “Identification, Characterization, and Optimization of 2,8-Disubstituted-1,5-naphthyridines as Novel Plasmodium falciparum Phosphatidylinositol-4-kinase Inhibitors with in Vivo Efficacy in a Humanized Mouse Model of Malaria” (J Med Chem, 2018).

The nature of data set [1]: Metabolic stability in human liver microsomes assessed as parent compound remaining at 0.1 uM in presence of NADPH after 30 mins by LC-MS/MS analysis. It is filed as ADME, microsome. Conditions: read-out: Stability.
Data set [2] in a line: Metabolic stability in rat liver microsomes assessed as parent compound remaining at 0.1 uM in presence of NADPH after 30 mins by LC-MS/MS analysis. The class given is ADME, microsome. As to conditions: read-out: Stability.
Data set [3] can be described thus: Metabolic stability in mouse liver microsomes assessed as parent compound remaining at 0.1 uM in presence of NADPH after 30 mins by LC-MS/MS analysis. It is filed as ADME, microsome. As to conditions: read-out: Stability.
Data set [4] in a line: Octanol-phosphate buffer distribution coefficient, log D of the compound at pH 7.4 measured after 1 hr by HPLC method. It is filed as physicochemical.
Data set [5] can be described thus: Apparent half life in Balb/c mouse pretreated with CYP inhibitor ABT at 20 mg/kg, po by LC-MS analysis. As to conditions: in vivo, read-out: t1/2(app) (converted). The class given is ADME, organism-based.
Data set [6] in a line: Apparent half life in Balb/c mouse at 20 mg/kg, po by LC-MS analysis. The class given is ADME, organism-based. Conditions: in vivo, read-out: t1/2(app) (converted).
Data set [7] can be described thus: Tmax in Balb/c mouse pretreated with CYP inhibitor ABT at 20 mg/kg, po by LC-MS analysis. The class given is ADME, organism-based. Conditions: in vivo.
In data set [8] the test system is Mus musculus. As to the kind of experiment: AUC (0 to infinity) in Balb/c mouse at 20 mg/kg, po by LC-MS analysis. Details: dose 20 mg/kg, route oral, time infinity. Conditions: in vivo. It is filed as ADME, organism-based.
Data set [9] has as its system Mus musculus. As to the kind of experiment: AUC (0 to infinity) in Balb/c mouse at 2 mg/kg, iv by LC-MS analysis. Details: dose 2 mg/kg, route intravenous, time infinity. The class given is ADME, organism-based. Conditions: in vivo.
Data set [10] is described as follows: Apparent half life in Balb/c mouse at 2 mg/kg, iv by LC-MS analysis. It is filed as ADME, organism-based. Conditions: in vivo, read-out: t1/2(app) (converted).
The nature of data set [11]: Tmax in Balb/c mouse at 20 mg/kg, po by LC-MS analysis. It is filed as ADME, organism-based. As to conditions: in vivo.
Data set [12] is described as follows: Cmax in Balb/c mouse pretreated with CYP inhibitor ABT at 20 mg/kg, po by LC-MS analysis. It is filed as ADME, organism-based. Also noted: dose 20 mg/kg, route oral. As to conditions: in vivo.
A short description of data set [13]: Cmax in Balb/c mouse at 20 mg/kg, po by LC-MS analysis. The class given is ADME, organism-based. Also noted: dose 20 mg/kg, route oral. As to conditions: in vivo.
Data set [14] has as its system Mus musculus. As to the kind of experiment: AUC (0 to infinity) in Balb/c mouse pretreated with CYP inhibitor ABT at 20 mg/kg, po by LC-MS analysis. It is filed as ADME, organism-based. Details: dose 20 mg/kg, route oral, time infinity. As to conditions: in vivo.
The subject of data set [15] is Mus musculus. As to the kind of experiment: AUC in humanized NOD-scid IL2Rgamma null mouse infected with Plasmodium falciparum 3D70087/N9 at 50 mg/kg, po up to 24 hrs post dose by LC-MS/MS analysis. It is filed as ADME, organism-based. Also noted: time < 24 hr, dose 50 mg/kg, route oral. As to conditions: in vivo.
Data set [16] in a line: Cmax in humanized NOD-scid IL2Rgamma null mouse infected with Plasmodium falciparum 3D70087/N9 at 5 mg/kg, po up to 96 hrs post dose by LC-MS/MS analysis. As to conditions: in vivo. It is filed as ADME, organism-based. Also noted: dose 5 mg/kg, route oral.
A short description of data set [17]: Cmax in humanized NOD-scid IL2Rgamma null mouse infected with Plasmodium falciparum 3D70087/N9 at 50 mg/kg, po up to 96 hrs post dose by LC-MS/MS analysis. The class given is ADME, organism-based. Also noted: dose 50 mg/kg, route oral. Conditions: in vivo.
Data set [18] in a line: Tmax in humanized NOD-scid IL2Rgamma null mouse infected with Plasmodium falciparum 3D70087/N9 at 10 mg/kg, po up to 96 hrs post dose by LC-MS/MS analysis. The class given is ADME, organism-based. Conditions: in vivo.
In data set [19] the test system is Mus musculus. As to the kind of experiment: AUC in humanized NOD-scid IL2Rgamma null mouse infected with Plasmodium falciparum 3D70087/N9 at 5 mg/kg, po up to 24 hrs post dose by LC-MS/MS analysis. Also noted: time < 24 hr, dose 5 mg/kg, route oral. Conditions: in vivo. The class given is ADME, organism-based.
A short description of data set [20]: Cmax in humanized NOD-scid IL2Rgamma null mouse infected with Plasmodium falciparum 3D70087/N9 at 10 mg/kg, po up to 96 hrs post dose by LC-MS/MS analysis. It is filed as ADME, organism-based. Also noted: dose 10 mg/kg, route oral. As to conditions: in vivo.
A short description of data set [21]: Cmax in Balb/c mouse pretreated with CYP inhibitor ABT at 5 mg/kg, po by LC-MS analysis. The class given is ADME, organism-based. Also noted: dose 5 mg/kg, route oral. Conditions: in vivo.
Data set [22] concerns Mus musculus. As to the kind of experiment: AUC in humanized NOD-scid IL2Rgamma null mouse infected with Plasmodium falciparum 3D70087/N9 at 10 mg/kg, po up to 24 hrs post dose by LC-MS/MS analysis. It is filed as ADME, organism-based. Also noted: time < 24 hr, dose 10 mg/kg, route oral. Conditions: in vivo.
Data set [23] in a line: Cmax in humanized NOD-scid IL2Rgamma null mouse infected with Plasmodium falciparum 3D70087/N9 at […], po up to 96 hrs post dose by LC-MS/MS analysis. The class given is ADME, organism-based. Also noted: dose 2.5 mg/kg, route oral. Conditions: in vivo.
Data set [24] can be described thus: Apparent half life in Balb/c mouse pretreated with CYP inhibitor ABT at 5 mg/kg, po by LC-MS analysis. The class given is ADME, organism-based. As to conditions: in vivo, read-out: t1/2(app) (converted).
In data set [25] the test system is Mus musculus. As to the kind of experiment: AUC in humanized NOD-scid IL2Rgamma null mouse infected with Plasmodium falciparum 3D70087/N9 at […], po up to 24 hrs post dose by LC-MS/MS analysis. It is filed as ADME, organism-based. Details: dose 2.5 mg/kg, time < 24 hr, route oral. As to conditions: in vivo.
A short description of data set [26]: Tmax in Balb/c mouse pretreated with CYP inhibitor ABT at 5 mg/kg, po by LC-MS analysis. It is filed as ADME, organism-based. As to conditions: in vivo.
Data set [27] relates to Mus musculus. As to the kind of experiment: AUC (0 to infinity) in Balb/c mouse at […], iv by LC-MS analysis. The class given is ADME, organism-based. Details: dose 1.5 mg/kg, time infinity, route intravenous. As to conditions: in vivo.
Data set [28] can be described thus: Tmax in humanized NOD-scid IL2Rgamma null mouse infected with Plasmodium falciparum 3D70087/N9 at 5 mg/kg, po up to 96 hrs post dose by LC-MS/MS analysis. Conditions: in vivo. The class given is ADME, organism-based.
Data set [29] in a line: In vivo drug metabolism in Balb/c mouse assessed as naphthyridine core or pyridine substituent oxidation metabolite formation in plasma at 5 mg/kg, po or […], iv by LC-MS analysis. The class given is ADME, organism-based.
Data set [30] is described as follows: Tmax in humanized NOD-scid IL2Rgamma null mouse infected with Plasmodium falciparum 3D70087/N9 at […], po up to 96 hrs post dose by LC-MS/MS analysis. It is filed as ADME, organism-based. As to conditions: in vivo.
Data set [31] in a line: Tmax in humanized NOD-scid IL2Rgamma null mouse infected with Plasmodium falciparum 3D70087/N9 at 50 mg/kg, po up to 96 hrs post dose by LC-MS/MS analysis. As to conditions: in vivo. The class given is ADME, organism-based.
Data set [32] in a line: Volume of distribution in Balb/c mouse at […], iv by LC-MS analysis. As to conditions: in vivo. It is filed as ADME, organism-based.

For `O=S(=O)(CCN1CCCC1)c1cccc(-c2ccc3nccc(-c4ccncc4)c3n2)c1`, the remaining at 0.5 h, 0.1 µM in data set [1] is 56%; in data set [2], 66%; in [3], 60%.

`CS(=O)(=O)Nc1cccc(-c2ccc3nccc(-c4ccncc4)c3n2)c1`: the remaining at 0.5 h, 0.1 µM stood at 59% in data set [1], 49% in [2] and 50% in data set [3].

For the molecule `CS(=O)(=O)Nc1ccc2nccc(-c3ccncc3)c2n1`, the remaining at 0.5 h, 0.1 µM was 96% in data set [1], 94% in data set [2] and 95% in [3].

Regarding `O=S(=O)(NCCN1CCOCC1)c1cccc(-c2ccc3nccc(-c4ccncc4)c3n2)c1`, the remaining at 0.5 h, 0.1 µM in data set [1], in [2] and in [3] was less than 1% throughout.

For the molecule `O=S(=O)(c1cccc(-c2ccc3nccc(-c4ccncc4)c3n2)c1)N1CC[C@H](O)C1`, the remaining at 0.5 h, 0.1 µM in data set [1] came out at 17%; in data set [2], 10%; in data set [3], 12%.

In the case of `O=S(=O)(CCO)c1cccc(-c2ccc3nccc(-c4ccncc4)c3n2)c1`, the results for the remaining at 0.5 h, 0.1 µM in [1], in data set [2] and in data set [3] were 95%, 59% and 52%, respectively.

Take `NS(=O)(=O)c1ccc(-c2ccc3nccc(-c4ccncc4)c3n2)cc1`: the values for the remaining at 0.5 h, 0.1 µM in [1], in data set [2] and in [3] were 76%, 36% and 13%, respectively.

In the case of `Nc1cccc(-c2ccc3nccc(-c4ccncc4)c3n2)c1`, the remaining at 0.5 h, 0.1 µM in [1] is 78%; in data set [2], 61%; in data set [3] it was 54%.

As to `C[C@@H]1CN(S(=O)(=O)c2cccc(-c3ccc4nccc(-c5ccncc5)c4n3)c2)C[C@H](C)N1`, the remaining at 0.5 h, 0.1 µM stood at 34% in data set [1], 36% in data set [2] and 33% in [3].

With `O=S(=O)(c1cccc(-c2ccc3nccc(-c4ccncc4)c3n2)c1)N1CCC(O)CC1`, the remaining at 0.5 h, 0.1 µM was determined as 5% in data set [1], 11% in data set [2] and 7% in data set [3].

For `O=S(=O)(NCc1ccccc1)c1cccc(-c2ccc3nccc(-c4ccncc4)c3n2)c1`, the remaining at 0.5 h, 0.1 µM amounted to 42% in data set [1], 6% in data set [2] and 2% in data set [3]. In data set [4], the logD at 1 h was 1.8 to 4.2.

Turning to `NS(=O)(=O)c1cccc(-c2ccc3nccc(-c4ccncc4F)c3n2)c1`, in data set [4], the logD at 1 h was in the range of 1.8 to 4.2.

For `O=S(=O)(NCC1COC1)c1cccc(-c2ccc3nccc(-c4ccncc4)c3n2)c1`, the figures for the remaining at 0.5 h, 0.1 µM in data set [1], in data set [2] and in [3] were 2%, 8% and 19%, respectively.

For `NS(=O)(=O)c1cccc(-c2ccc3nccc(-c4ccncc4)c3n2)c1`, the half-life in data set [5] was 192 min; in [6] it was 96 min; in data set [10], 150 min. Moreover, the Tmax is 30 to 60 min in data set [7] and 30 min in [11]. Further, the values for the AUC in [8], in data set [9] and in data set [14] were 523 µM/min, 111 µM/min and 243 µM/min, respectively. Moreover, the Cmax in [12] was 500 nM; in [13], 5 µM.

With `NS(=O)(=O)c1cccc(-c2ccc3nccc(-c4ccnc(C(F)(F)F)c4)c3n2)c1`, the AUC was determined as 5591 µM/min in data set [15]; 1198 µM/min in data set [19]; 2035 µM/min in [22]; 658 µM/min in data set [25]; 350 µM/min in data set [27]. For the same molecule, the remaining at 0.5 h, 0.1 µM in [1] amounted to 95%; in data set [2] it was 96%; in data set [3] it was 97%. For the same molecule, the Cmax is 1470 nM in data set [16], 6.36 µM in data set [17], 2230 nM in data set [20] and 2800 nM in data set [21]. Also, the Tmax in data set [18] came to 4 h; in data set [26] it was 1 h; in [28], 4 h; in [31], 2.5 h. Moreover, the Cmax at 96 h in data set [23] was 750 nM. Further, the half-life in data set [24] was 1980 min. In addition, the logD at 1 h in data set [4] lay in the range of 1.8 to 4.2. Also, in data set [29], the Drug metabolism result was “Metabolite_Detected”. Moreover, the Tmax at 96 h in data set [30] was 4 h. For the same molecule, the Vd in data set [32] turned out to be 7 L/kg.

As for `O=S(=O)(NCCN1CCCC1)c1cccc(-c2ccc3nccc(-c4ccnc(C(F)(F)F)c4)c3n2)c1`, the remaining at 0.5 h, 0.1 µM in data set [1] is 14%; in data set [2], 16%; in [3], 8%.

In the case of `NS(=O)(=O)c1cncc(-c2ccc3nccc(-c4cn[nH]c4)c3n2)c1`, in data set [3], the remaining at 0.5 h, 0.1 µM turned out to be 2%.
